Source: the supplement of paper PMC10627819

Experiments:
B. subtilis 168 [1] = assay: fitness (endpoint OD595 vs no drug) (fraction); higher = more growth
In short: (§1)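 Plates with 384 wells were inoculated at OD595 0.01 using 30 µl of TSB, LB Lennox or CY, or 55 µl for S. pneumoniae. Incubation was at 37 °C, with OD595 measured every 30 min for 14 h. Fitness is the stationary-phase transition optical density over the robust mean of no-drug control wells, after first-reading background subtraction; it is capped at 1.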

S. aureus Newman [2] = assay: as above
In short: as §1

S. pneumoniae D39V [3] = assay: as above
In short: as §1

B. subtilis 168 [4] = assay: Bliss interaction score (quartile over a dose matrix) (fitness difference); higher = more antagonism (negative = synergy)
In short: (§2)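 At entry into stationary phase, OD595 was recorded and divided by the robust mean of the no-drug wells on that plate, with any value above 1 set to 1. This gives the fitness measure used throughout. Single-drug fitness was inferred from combination data, and the Bliss score, observed minus product-expected fitness, is shown as quartiles across technical, biological and donor/recipient replicates.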

S. aureus DSM 20231 = assay: as above
In short: as §2

S. aureus Newman [5] = assay: as above
In short: as §2

S. pneumoniae D39V [6] = assay: as above
In short: as §2
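For Bliss interaction score (quartile over a dose matrix) in this document: first quartile when negative (synergy) and third quartile when positive (antagonism).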

CO/N=C(\C(=O)N[C@@H]1C(=O)N2C(C(=O)O)=C(COC(C)=O)CS[C@H]12)c1csc(N)n1 [Cefotaxime] + CN[C@@H]1[C@H](O[C@H]2[C@H](O[C@H]3[C@H](O)[C@@H](O)[C@H](N=C(N)N)[C@@H](O)[C@@H]3N=C(N)N)O[C@@H](C)[C@]2(O)C=O)O[C@@H](CO)[C@H](O)[C@H]1O [Streptomycin]
fitness, one replicate
Conditions	first compound 0.0018 µg/mL	first compound 0.0035 µg/mL	first compound 0.007 µg/mL	first compound 0.00775 µg/mL	first compound 0.0155 µg/mL	first compound 0.031 µg/mL
B. subtilis 168 [1], partner 2 µg/mL	–	–	–	0.784	0.492	0.414
B. subtilis 168 [1], partner 4 µg/mL	–	–	–	0.0757	0.0218	0.0306
B. subtilis 168 [1], partner 8 µg/mL	–	–	–	0.0214	0.0302	0.0308
S. pneumoniae D39V [3], partner 16 µg/mL	0.92	0.881	0.654	–	–	–

fitness
Conditions	partner 1 µg/mL	partner 2 µg/mL	partner 4 µg/mL	partner 8 µg/mL
B. subtilis 168 [1], first compound 0.5 µg/mL	–	0.0795	0.043	0.0401
B. subtilis 168 [1], first compound 1 µg/mL	–	0.0611	0.0445	0.0309
B. subtilis 168 [1], first compound 2 µg/mL	–	0.061	0.048	0.0478
S. aureus Newman [2], first compound 0.078 µg/mL	0.761	0.757	0.72	–
S. aureus Newman [2], first compound 0.156 µg/mL	0.589	0.589	0.474	–
S. aureus Newman [2], first compound 0.312 µg/mL	0.382	0.29	0.155	–
S. aureus Newman [2], first compound 0.625 µg/mL	0.114	0.0719	0.0326	–
S. aureus Newman [2], first compound 1.25 µg/mL	0.0262	0.0178	0.0244	–
S. aureus Newman [2], first compound 2.5 µg/mL	0.0379	0.0307	0.0187	–
S. pneumoniae D39V [3], first compound 0.0018 µg/mL	–	0.966	0.996	0.964
S. pneumoniae D39V [3], first compound 0.0035 µg/mL	–	0.945	0.974	0.963
S. pneumoniae D39V [3], first compound 0.007 µg/mL	–	0.787	0.822	0.846

Conditions	Bliss interaction score
B. subtilis 168 [4]	-0.105
S. aureus DSM 20231	-0.0464
S. aureus Newman [5]	-0.0376
S. pneumoniae D39V [6]	0.0714

O=C(O)c1cn(C2CC2)c2cc(N3CCNCC3)c(F)cc2c1=O [Ciprofloxacin] + CC1=C\[C@@H](O)CC(=O)Cc2nc(co2)C(=O)N2CCC=C2C(=O)O[C@H](C(C)C)[C@H](C)/C=C/C(=O)NC\C=C\1 [Virginiamycin M1]
fitness
Conditions	partner 0.0625 µg/mL	partner 0.125 µg/mL	partner 0.25 µg/mL	partner 0.5 µg/mL	partner 1 µg/mL	partner 2 µg/mL
B. subtilis 168 [1], first compound 0.0098 µg/mL	0.941	0.896	0.859	–	–	–
B. subtilis 168 [1], first compound 0.0195 µg/mL	0.739	0.703	0.705	–	–	–
B. subtilis 168 [1], first compound 0.039 µg/mL	0.139	0.0393	0.0545	–	–	–
S. aureus Newman [2], first compound 0.0375 µg/mL	0.664	0.662	0.672	–	–	–
S. aureus Newman [2], first compound 0.075 µg/mL	0.616	0.658	0.703	–	–	–
S. aureus Newman [2], first compound 0.15 µg/mL	0.0348	0.0378	0.0632	–	–	–
S. pneumoniae D39V [3], first compound 0.125 µg/mL	–	–	–	0.969	0.96	0.909
S. pneumoniae D39V [3], first compound 0.25 µg/mL	–	–	–	0.874	0.842	0.784

fitness, one replicate
Conditions	first compound 0.078 µg/mL	first compound 0.125 µg/mL	first compound 0.156 µg/mL	first compound 0.25 µg/mL	first compound 0.312 µg/mL	first compound 0.5 µg/mL
S. aureus Newman [2], partner 0.5 µg/mL	0.638	–	0.45	–	0.128	–
S. aureus Newman [2], partner 1 µg/mL	0.785	–	0.503	–	0.125	–
S. aureus Newman [2], partner 2 µg/mL	0.72	–	0.472	–	0.161	–
S. pneumoniae D39V [3], partner 0.15 µg/mL	–	0.954	–	0.894	–	0.807
S. pneumoniae D39V [3], partner 0.3 µg/mL	–	0.928	–	0.844	–	0.816

Conditions	Bliss interaction score
B. subtilis 168 [4]	-0.0881
S. aureus DSM 20231	0.0396
S. aureus Newman [5]	0.0616
S. pneumoniae D39V [6]	-0.0532

O=C(O)c1cn(C2CC2)c2cc(N3CCNCC3)c(F)cc2c1=O [Ciprofloxacin] + CC(C1CCC(C(O1)OC2C(CC(C(C2O)OC3C(C(C(CO3)(C)O)NC)O)N)N)N)NC [Gentamicin]
main component drawn
Conditions	fitness
B. subtilis 168 [1], first compound 0.0098 µg/mL, partner 0.0625 µg/mL	0.881
B. subtilis 168 [1], first compound 0.0195 µg/mL, partner 0.0625 µg/mL	0.703
B. subtilis 168 [1], first compound 0.039 µg/mL, partner 0.25 µg/mL	0.117
S. aureus Newman [2], first compound 0.0375 µg/mL, partner 0.5 µg/mL	0.786
S. aureus Newman [2], first compound 0.0375 µg/mL, partner 1 µg/mL	0.877
S. aureus Newman [2], first compound 0.0375 µg/mL, partner 2 µg/mL	0.917
S. aureus Newman [2], first compound 0.075 µg/mL, partner 0.5 µg/mL	0.74
S. aureus Newman [2], first compound 0.075 µg/mL, partner 1 µg/mL	0.786
S. aureus Newman [2], first compound 0.075 µg/mL, partner 2 µg/mL	0.783
S. aureus Newman [2], first compound 0.15 µg/mL, partner 0.5 µg/mL	0.43
S. pneumoniae D39V [3], first compound 0.125 µg/mL, partner 2 µg/mL	0.954
S. pneumoniae D39V [3], first compound 0.125 µg/mL, partner 4 µg/mL	0.92
S. pneumoniae D39V [3], first compound 0.125 µg/mL, partner 8 µg/mL	0.884
S. pneumoniae D39V [3], first compound 0.25 µg/mL, partner 2 µg/mL	0.792
S. pneumoniae D39V [3], first compound 0.25 µg/mL, partner 4 µg/mL	0.766
S. pneumoniae D39V [3], first compound 0.25 µg/mL, partner 8 µg/mL	0.677

fitness, S. aureus Newman [2], one replicate, main component drawn
Conditions	first compound 0.0375 µg/mL	first compound 0.075 µg/mL	first compound 0.15 µg/mL
partner 0.375 µg/mL	0.704	0.787	0.0591
partner 0.75 µg/mL	0.712	0.728	0.0774
partner 1.5 µg/mL	0.639	0.175	0.0856

main component drawn
Conditions	Bliss interaction score
B. subtilis 168 [4]	0.19
S. aureus DSM 20231	0.0655
S. aureus Newman [5]	0.12
S. pneumoniae D39V [6]	-0.0953
